What was measured:
[1] = water absorption and agglomeration after being placed in the air for 24 hours; assay type: physicochemical
[2] = TG
Method: The crystal structure and thermal stability of anhydrous choline chloride single crystal product obtained in Experiment example 1 were analyzed, respectively.

Structure (SMILES): C[N+](C)(C)CCO.[Cl-] [choline chloride]
- agglomeration [1]: not agglomerated
- water absorption amount [1]: 2.58 wt %
- initial temperature of thermal cracking ([2]; FIG. 5): 350 °C
- temperature at which the weight loss rate reaches the maximum ([2]; FIG. 5): 370 °C
- thermal stability (comparison in words) ([2]; versus commercial product): better than that of commercial choline chloride
- temperature at which weight loss began ([2]; weight loss ascribed to evaporation of water): 330 °C

Structure (SMILES): CCC(=O)OCC[N+](C)(C)C.[Cl-] [propionylcholine chloride]
- agglomeration [1]: not agglomerated
- water absorption amount [1]: 1.06 wt %

Structure (SMILES): CCC(=O)OCC[N+](C)(C)C.[Br-] [propionylcholine bromide]
- agglomeration [1]: not agglomerated
- water absorption amount [1]: 0.77 wt %

Structure (SMILES): C[N+](C)(C)CCO.[I-] [anhydrous choline iodide single crystal, choline iodide]
- agglomeration [1]: not agglomerated
- water absorption amount [1]: 2.30 wt %

Structure (SMILES): CC(=O)OCC[N+](C)(C)C.[Cl-] [acetylcholine chloride]
- agglomeration [1]: not agglomerated
- water absorption amount [1]: 1.58 wt %

— patent US20200039918A1, “METHOD FOR PREPARING SINGLE CRYSTAL OF ANHYDROUS HALOGENATED CHOLINE OR DERIVATIVE THEREOF” (HEBEI UNIVERSITY OF SCIENCE AND TECHNOLOGY, priority 2017, published 2020)
